# Source: ChEMBL document CHEMBL1201862, “PubChem BioAssay data set” (2004)
# The source made the active and inactive calls.
# What was measured:
# [1] = viability loss of HMLE_sh_eGFP cells – cell-based, luminescence, counter-screen for HMLE_sh_ECad selective toxicity project, dose response (AID 463074); assay type: functional, Homo sapiens;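 note: HMLE human mammary epithelial cells expressing control shRNA against eGFP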
# [2] = Luminescence Cell-Based Dose Retest to Confirm Inhibitors of Cancer Stem Cells. [Related pubchem assays (depositor defined):AID2717, AID2721]; assay type: functional; conditions: Homo sapiens
# [3] = molecular target: T1, Microphthalmia-associated transcription factor (Homo sapiens, UniProt O75030); test: reducers of TRPM1 reporter luminescence, concentration series – cell-based, SK-MEL-5, cherry-picked, set 3, MITF inhibitor project, dose response (AID 493073); assay type: functional;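 note: SK-MEL-5 melanoma cells with luciferase driven by the MITF target TRPM1 promoter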
# T1 sequence (O75030 whole entry): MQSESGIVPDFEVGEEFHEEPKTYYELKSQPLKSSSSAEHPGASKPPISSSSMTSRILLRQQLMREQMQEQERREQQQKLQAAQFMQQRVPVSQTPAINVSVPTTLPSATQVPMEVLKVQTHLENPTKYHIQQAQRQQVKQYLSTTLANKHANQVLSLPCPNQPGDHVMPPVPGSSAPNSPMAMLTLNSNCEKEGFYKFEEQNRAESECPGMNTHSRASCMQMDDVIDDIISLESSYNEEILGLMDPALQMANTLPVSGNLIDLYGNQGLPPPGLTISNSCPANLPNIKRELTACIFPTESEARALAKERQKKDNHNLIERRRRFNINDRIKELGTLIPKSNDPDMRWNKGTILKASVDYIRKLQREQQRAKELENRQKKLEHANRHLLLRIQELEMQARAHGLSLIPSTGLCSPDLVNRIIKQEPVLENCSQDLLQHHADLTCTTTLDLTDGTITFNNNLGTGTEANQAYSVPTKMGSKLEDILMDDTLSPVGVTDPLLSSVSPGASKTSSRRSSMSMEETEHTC
# [4] = tested on: Jurkat; test: blockers of NF-kB activation in T cells – Jurkat, luciferase reporter, luminescence, B- and T-cell, dose response (AID 489004); assay type: functional, cell-based; conditions: Homo sapiens;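 note: NF-kB luciferase reporter Jurkat cells stimulated with PMA plus ionomycin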
# [5] = HEK-293T viability loss, compound-treated – cell-based, uHTS hits, cytotoxicity control for B/T-cell NF-kB inhibitor project, dose response (AID 489019); assay type: functional;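 note: IC50 reflects cytotoxicity as loss of cell viability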
# [6] = molecular target: Glucose-6-phosphate 1-dehydrogenase (Homo sapiens, UniProt P11413); test: inhibition of Homo sapiens G6PD, dose series – biochemical, fluorescence, selectivity assay for P. falciparum G6PD inhibitor project, dose response (AID 504792); assay type: functional
# Sequence of Glucose-6-phosphate 1-dehydrogenase (P11413 whole entry): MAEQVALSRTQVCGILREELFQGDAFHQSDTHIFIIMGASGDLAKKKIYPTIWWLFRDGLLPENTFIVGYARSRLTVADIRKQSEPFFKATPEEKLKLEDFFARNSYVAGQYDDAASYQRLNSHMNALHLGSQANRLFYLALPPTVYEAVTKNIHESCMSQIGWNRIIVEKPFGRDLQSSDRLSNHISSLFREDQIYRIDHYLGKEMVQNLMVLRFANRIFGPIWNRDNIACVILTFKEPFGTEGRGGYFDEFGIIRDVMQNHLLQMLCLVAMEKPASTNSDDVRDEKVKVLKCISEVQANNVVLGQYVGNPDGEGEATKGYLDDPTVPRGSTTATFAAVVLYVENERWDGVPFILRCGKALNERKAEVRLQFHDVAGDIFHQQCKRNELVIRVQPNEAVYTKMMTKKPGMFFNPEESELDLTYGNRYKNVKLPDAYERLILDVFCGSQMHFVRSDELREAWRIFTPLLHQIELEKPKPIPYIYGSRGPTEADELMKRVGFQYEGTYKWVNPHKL
# [7] = molecular target: T2, Rac GTPase-activating protein 1 (Homo sapiens, UniProt Q9H0H5); test: blockers of MgcRacGAP-driven Rac1 GTP hydrolysis – biochemical, ADP Hunter fluorescence, primary and confirmatory, confirmation (AID 624330); assay type: functional
# T2 sequence (Q9H0H5 whole entry): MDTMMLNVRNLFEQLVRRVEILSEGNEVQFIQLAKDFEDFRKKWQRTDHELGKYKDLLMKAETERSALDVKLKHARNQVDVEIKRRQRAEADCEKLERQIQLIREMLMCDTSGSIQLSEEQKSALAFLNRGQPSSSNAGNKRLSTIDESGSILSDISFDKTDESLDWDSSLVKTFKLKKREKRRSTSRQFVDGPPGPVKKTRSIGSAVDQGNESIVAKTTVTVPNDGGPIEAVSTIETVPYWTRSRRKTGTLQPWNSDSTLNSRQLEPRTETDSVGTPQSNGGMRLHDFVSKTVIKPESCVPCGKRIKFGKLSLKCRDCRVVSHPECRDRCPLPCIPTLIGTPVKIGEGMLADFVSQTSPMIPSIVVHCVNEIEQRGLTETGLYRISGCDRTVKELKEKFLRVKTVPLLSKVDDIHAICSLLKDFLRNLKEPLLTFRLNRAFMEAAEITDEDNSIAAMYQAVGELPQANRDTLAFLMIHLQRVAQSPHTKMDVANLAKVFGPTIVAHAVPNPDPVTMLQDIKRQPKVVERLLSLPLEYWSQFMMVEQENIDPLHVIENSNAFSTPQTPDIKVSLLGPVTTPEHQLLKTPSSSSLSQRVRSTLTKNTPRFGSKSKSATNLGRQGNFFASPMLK
# [8] = viability loss in HeLa cells – cytotoxicity control for MgcRacGAP inhibitor project, dose response (AID 624300); assay type: functional
# [9] = molecular target: Hexokinase-1 (Homo sapiens, UniProt P19367); test: SAR analysis of small molecule inhibitors of hexokinase domain containing I (HKDC1) in the hexokinase 1 selectivity assay. [Related pubchem assays (depositor defined):AID493160, AID493190]; assay type: functional
# Sequence of Hexokinase-1 (P19367 whole entry, the tested form may be a part): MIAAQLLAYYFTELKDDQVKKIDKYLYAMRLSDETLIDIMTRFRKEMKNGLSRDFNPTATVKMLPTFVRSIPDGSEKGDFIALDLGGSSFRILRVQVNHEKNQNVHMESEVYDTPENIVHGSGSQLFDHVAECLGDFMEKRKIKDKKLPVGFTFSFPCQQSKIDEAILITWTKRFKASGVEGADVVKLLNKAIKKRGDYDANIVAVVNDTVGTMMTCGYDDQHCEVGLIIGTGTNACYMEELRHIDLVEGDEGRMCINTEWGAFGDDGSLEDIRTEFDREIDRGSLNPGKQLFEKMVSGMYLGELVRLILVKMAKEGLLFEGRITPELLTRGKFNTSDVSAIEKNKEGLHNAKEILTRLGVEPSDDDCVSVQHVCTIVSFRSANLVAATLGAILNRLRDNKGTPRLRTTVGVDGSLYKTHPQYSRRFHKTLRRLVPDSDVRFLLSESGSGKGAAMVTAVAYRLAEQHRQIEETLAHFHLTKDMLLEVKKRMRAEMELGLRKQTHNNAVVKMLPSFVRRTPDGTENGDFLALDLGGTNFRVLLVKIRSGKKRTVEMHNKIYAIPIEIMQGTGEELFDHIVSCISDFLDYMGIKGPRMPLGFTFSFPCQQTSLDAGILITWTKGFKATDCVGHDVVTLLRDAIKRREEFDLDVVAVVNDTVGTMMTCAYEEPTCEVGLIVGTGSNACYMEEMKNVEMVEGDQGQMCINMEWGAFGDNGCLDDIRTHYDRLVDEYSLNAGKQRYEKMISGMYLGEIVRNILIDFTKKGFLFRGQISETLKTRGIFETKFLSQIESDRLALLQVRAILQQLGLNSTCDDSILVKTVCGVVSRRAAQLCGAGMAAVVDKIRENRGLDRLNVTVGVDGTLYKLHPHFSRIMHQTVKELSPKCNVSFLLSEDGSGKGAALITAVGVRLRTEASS
# [10] = molecular target: Hexokinase HKDC1 (Homo sapiens, UniProt Q2TB90); test: SAR analysis of small molecule inhibitors of hexokinase domain containing I (HKDC1). [Related pubchem assays (depositor defined):AID493160, AID493190]; assay type: functional
# Sequence of Hexokinase HKDC1 (Q2TB90 whole entry, the tested form may be a part): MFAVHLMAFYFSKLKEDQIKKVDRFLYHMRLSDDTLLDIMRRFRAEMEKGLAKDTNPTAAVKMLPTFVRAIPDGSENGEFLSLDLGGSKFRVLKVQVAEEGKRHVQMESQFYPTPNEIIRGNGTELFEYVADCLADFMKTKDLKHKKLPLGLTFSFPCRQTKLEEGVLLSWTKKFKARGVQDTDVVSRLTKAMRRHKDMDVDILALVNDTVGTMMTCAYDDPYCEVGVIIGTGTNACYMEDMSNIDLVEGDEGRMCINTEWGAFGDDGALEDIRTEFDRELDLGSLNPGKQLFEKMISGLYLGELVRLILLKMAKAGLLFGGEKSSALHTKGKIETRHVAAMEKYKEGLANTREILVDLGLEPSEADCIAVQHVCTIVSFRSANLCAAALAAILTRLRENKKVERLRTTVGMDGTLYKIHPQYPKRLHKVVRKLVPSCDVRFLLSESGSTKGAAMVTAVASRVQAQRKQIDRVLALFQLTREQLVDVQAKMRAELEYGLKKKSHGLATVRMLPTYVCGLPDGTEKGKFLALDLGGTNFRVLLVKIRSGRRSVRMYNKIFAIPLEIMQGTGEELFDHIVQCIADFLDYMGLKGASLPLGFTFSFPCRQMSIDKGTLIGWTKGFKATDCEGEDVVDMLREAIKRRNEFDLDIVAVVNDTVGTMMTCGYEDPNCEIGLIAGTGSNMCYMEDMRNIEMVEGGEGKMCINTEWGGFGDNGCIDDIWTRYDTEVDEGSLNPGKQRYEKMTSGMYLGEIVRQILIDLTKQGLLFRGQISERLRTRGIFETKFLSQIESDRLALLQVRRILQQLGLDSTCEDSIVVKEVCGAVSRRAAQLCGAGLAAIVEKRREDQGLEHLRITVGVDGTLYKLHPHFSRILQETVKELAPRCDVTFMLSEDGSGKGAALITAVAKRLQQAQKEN
# [11] = molecular target: T3, Caspase-3 (Homo sapiens, UniProt P42574); test: inhibition of recombinant caspase-3 activity – biochemical, luminescence, set 2, selectivity assay for SENP protease inhibitor project, SAR follow-up (AID 588599); assay type: functional
# T3 sequence (P42574 whole entry): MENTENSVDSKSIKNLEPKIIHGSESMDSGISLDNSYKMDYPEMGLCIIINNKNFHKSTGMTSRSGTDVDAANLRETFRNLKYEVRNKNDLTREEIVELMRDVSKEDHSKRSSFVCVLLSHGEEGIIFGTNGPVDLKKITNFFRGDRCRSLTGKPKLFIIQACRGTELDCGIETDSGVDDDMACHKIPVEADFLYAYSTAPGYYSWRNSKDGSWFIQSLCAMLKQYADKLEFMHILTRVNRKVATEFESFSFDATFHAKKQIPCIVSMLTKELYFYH
# [12] = molecular target: T4, Sentrin-specific protease 8 (Homo sapiens, UniProt Q96LD8); test: inhibition of sentrin protease 8 – biochemical, luminescence, set 2, SAR follow-up (AID 588601); assay type: functional
# T4 sequence (Q96LD8 whole entry): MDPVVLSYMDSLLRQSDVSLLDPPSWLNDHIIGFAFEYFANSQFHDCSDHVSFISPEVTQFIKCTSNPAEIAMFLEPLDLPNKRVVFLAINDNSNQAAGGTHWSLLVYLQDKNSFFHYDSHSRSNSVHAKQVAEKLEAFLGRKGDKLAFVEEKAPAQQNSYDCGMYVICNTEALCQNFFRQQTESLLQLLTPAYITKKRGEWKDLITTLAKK
# [13] = molecular target: T5, Sentrin-specific protease 6 (Homo sapiens, UniProt Q9GZR1); test: inhibition of human SENP6 catalytic domain – biochemical, luminescence, set 2, SAR follow-up (AID 588598); assay type: functional
# T5 sequence (Q9GZR1 whole entry): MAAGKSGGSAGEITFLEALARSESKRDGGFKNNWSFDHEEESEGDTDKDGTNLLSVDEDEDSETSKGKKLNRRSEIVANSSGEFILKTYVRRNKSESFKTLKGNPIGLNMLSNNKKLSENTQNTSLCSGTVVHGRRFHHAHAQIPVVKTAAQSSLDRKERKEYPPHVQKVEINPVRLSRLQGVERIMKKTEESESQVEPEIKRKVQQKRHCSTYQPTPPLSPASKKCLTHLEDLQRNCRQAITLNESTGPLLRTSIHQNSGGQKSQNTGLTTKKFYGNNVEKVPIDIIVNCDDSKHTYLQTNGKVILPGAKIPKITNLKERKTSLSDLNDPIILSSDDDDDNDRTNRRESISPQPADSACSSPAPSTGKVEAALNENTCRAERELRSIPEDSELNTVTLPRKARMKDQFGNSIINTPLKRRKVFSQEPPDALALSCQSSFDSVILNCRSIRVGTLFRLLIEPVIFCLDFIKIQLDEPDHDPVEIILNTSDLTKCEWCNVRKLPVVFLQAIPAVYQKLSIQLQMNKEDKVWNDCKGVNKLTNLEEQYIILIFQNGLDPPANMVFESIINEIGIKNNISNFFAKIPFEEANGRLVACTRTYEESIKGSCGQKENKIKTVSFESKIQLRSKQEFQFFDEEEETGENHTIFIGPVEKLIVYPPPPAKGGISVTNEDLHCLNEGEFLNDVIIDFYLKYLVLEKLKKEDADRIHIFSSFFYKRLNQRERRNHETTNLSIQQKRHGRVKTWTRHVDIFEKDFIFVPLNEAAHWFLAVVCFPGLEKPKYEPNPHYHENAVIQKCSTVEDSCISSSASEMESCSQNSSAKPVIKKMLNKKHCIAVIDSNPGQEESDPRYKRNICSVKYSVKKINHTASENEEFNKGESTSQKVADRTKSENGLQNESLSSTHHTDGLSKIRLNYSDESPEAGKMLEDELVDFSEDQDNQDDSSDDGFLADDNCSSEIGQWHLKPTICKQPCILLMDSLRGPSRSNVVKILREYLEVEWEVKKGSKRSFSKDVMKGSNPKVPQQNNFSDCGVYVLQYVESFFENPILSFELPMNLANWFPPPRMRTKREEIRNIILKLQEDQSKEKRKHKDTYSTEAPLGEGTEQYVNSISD
# [14] = molecular target: T6, Sentrin-specific protease 7 (Homo sapiens, UniProt Q9BQF6); test: inhibition of human SENP7 cleavage activity – biochemical, luminescence, set 2, SAR follow-up (AID 588600); assay type: functional
# T6 sequence (Q9BQF6 whole entry): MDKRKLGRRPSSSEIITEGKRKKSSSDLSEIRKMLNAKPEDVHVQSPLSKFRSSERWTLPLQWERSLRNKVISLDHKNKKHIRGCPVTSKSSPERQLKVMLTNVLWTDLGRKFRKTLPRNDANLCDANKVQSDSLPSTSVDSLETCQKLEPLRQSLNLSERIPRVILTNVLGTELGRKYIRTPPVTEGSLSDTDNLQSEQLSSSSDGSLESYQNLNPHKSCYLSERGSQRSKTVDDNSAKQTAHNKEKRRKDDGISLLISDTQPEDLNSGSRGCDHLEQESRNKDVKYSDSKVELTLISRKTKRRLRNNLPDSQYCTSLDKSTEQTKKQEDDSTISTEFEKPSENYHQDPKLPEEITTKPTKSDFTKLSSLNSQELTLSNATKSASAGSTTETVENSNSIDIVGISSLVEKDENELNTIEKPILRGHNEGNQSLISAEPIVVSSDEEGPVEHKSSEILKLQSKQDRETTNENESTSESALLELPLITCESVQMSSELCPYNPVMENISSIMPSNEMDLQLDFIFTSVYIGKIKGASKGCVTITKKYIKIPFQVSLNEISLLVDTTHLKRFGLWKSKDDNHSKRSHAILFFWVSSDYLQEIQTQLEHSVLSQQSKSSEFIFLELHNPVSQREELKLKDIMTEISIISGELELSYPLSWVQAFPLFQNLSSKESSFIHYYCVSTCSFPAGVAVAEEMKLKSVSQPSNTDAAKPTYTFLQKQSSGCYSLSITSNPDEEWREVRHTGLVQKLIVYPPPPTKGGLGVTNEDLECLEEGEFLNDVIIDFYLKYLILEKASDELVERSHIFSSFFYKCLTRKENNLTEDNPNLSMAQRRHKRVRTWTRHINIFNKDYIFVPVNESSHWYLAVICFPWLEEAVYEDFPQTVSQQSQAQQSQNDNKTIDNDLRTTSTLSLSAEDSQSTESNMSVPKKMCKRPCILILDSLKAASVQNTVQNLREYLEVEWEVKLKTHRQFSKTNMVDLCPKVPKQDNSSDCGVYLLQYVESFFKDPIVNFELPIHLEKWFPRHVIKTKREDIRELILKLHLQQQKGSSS
# [15] = HEK-293T viability loss after treatment – luminescence, T-cell screen hits, cytotoxicity control for TCR NF-kB inhibitor project, dose response (AID 489026); assay type: functional, cell-based;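 note: cells exposed to compound about 14 hours before the viability readout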
# [16] = molecular target: Phospholipase A2 (Homo sapiens, UniProt P04054); test: phospholipase A2 activity inhibition – biochemical, set 2, counter-screen for ATG4B inhibitor project, dose response (AID 588586); assay type: functional
# Sequence of Phospholipase A2 (P04054 whole entry): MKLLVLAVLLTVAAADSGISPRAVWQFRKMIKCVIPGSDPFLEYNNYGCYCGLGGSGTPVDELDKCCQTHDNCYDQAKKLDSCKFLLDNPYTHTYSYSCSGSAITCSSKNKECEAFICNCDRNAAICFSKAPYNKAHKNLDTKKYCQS
# [17] = molecular target: T7, Cysteine protease ATG4B (Homo sapiens, UniProt Q9Y4P1); test: autophagin-1 cysteine protease inhibition – biochemical, fluorescence, set 2, dose response (AID 588584); assay type: functional
# T7 sequence (Q9Y4P1 whole entry): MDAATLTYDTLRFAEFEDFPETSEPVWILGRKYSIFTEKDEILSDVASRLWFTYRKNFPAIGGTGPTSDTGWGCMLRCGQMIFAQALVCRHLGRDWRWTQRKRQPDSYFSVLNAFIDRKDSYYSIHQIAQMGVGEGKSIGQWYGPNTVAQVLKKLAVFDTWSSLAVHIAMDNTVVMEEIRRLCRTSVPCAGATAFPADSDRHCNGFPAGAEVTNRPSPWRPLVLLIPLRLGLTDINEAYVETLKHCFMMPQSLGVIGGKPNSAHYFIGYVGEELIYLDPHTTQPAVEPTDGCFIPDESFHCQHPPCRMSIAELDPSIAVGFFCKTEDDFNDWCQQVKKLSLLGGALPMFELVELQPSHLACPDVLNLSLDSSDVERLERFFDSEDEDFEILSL
# [18] = tested on: Escherichia coli; test: microbe, parasite or virus in culture
# [19] = A Cell Based Secondary Assay To Explore Cytotoxicity of Compounds that Sensitize Mycobacterium Tuberculosis to Beta-Lactam Antibiotics.; assay type: functional
# [20] = molecular target: Dual specificity protein kinase CLK1 (Homo sapiens, UniProt P49759); test: inhibition of human CLK1 activity – biochemical, cherry-picked samples, selectivity assay for Dyrk1A inhibitor project, dose response (AID 588811)
# Sequence of Dual specificity protein kinase CLK1 (P49759 whole entry): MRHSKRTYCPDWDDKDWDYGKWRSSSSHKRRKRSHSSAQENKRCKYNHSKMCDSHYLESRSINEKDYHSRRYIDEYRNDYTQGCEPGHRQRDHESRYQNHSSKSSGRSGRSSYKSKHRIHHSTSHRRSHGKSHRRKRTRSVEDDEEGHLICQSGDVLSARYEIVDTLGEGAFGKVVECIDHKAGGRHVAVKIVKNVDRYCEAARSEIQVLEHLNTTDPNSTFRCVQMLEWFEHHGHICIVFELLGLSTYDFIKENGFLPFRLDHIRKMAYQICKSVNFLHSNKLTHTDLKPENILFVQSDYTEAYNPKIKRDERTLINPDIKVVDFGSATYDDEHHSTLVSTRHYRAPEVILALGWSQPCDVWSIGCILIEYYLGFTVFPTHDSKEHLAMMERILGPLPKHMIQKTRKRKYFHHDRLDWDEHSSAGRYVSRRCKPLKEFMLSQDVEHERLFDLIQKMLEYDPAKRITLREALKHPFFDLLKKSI
compound,measurement,setting,value
O=C(Nc1ccccc1N1CCCC1)c1cccc(-c2cc3ccccc3oc2=O)c1,AC50,[1],41.2 µM (active)
same,AC50,[2],1.88 µM (active)
O=C(COC(=O)c1cccnc1O)Nc1ccc(N2CCCCC2)cc1,AC50,[3],1.03 µM (active)
same,IC50,[4],0.19 µM (active)
same,IC50,[5],> 80 µM (inactive)
O=C1C(=Cc2cccc(O)c2O)SC(=S)N1CCCN1CCOCC1,IC50,[6],> 80 µM (inactive)
same,IC50,[7],45.5 µM (active)
same,CC50,[8],100 µM (active)
O=c1c2ccccc2nc(/C=C/c2ccncc2)n1Cc1ccccc1,IC50,[9],> 80 µM (inactive)
same,IC50,[10],> 80 µM (inactive)
COc1ccc(N2CC(C(=O)N/N=C/c3c[nH]c4ccccc34)CC2=O)cc1 (configuration not stated),IC50,[11],> 99 µM (inactive)
same,IC50,[12],> 99 µM (inactive)
same,IC50,[13],> 99 µM (inactive)
same,IC50,[14],> 99 µM (inactive)
CC1=Nc2ccccc2/C1=C\c1sc(Nc2ccc(C)cc2)nc1O,IC50,[15],45.8 µM (inactive)
same,IC50,[16],22.3 µM (inactive)
same,AC50,[2],0.546 µM (active)
same,IC50,[17],30.6 µM (inactive)
Cc1nc(Nc2ccc(Cl)cc2Cl)sc1C(=O)Nc1ccccc1,AC50,[18],56.1 µM (active)
same,AC50,[2],7.83 µM (active)
same,CC50,[19],> 40 µM (active)
Cc1ccc(CNc2ncnc3ccc(-c4ccoc4C)cc23)o1,AC50,[20],0.695 µM (active)
